Data reported in patent US20220175701A1, “TREATMENT OF MAJOR DEPRESSIVE DISORDER AND SUICIDAL IDEATIONS THROUGH STIMULATION OF HIPPOCAMPAL NEUROGENESIS UTILIZING PLANT-BASED APPROACHES” (THERAPEUTIC SOLUTIONS INTERNATIONAL, INC., priority 2020, published 2022).
Where two headings read alike, the source gives them in different places.

Tests used:
macrophage foam cells = conditions: cited from earlier work
[1] = test system: mice with experimental colitis; conditions: cited from earlier work
[2] = test system: lipopolysaccharide-activated macrophages; conditions: cited from earlier work
[3] = test system: rats subjected to myocardial ischemia and reperfusion; conditions: EGCG 10 mg/kg intravenously then 10 mg/kg/h infusion; cited from earlier work
[4] = test system: BALB/c mice exposed to random stress; test: Endogenous neurogenesis in stressed mice, BRDU incorporation assessed by histology; assay type: in vivo; conditions: stressed BALB/c mice treated daily; FIG. 1
Experimental: FIG. 1 is a bar graph showing the results of stressed mice that were treated with Fluoxetine or QuadraMune™ daily. Assessment of endogenous neurogenesis was performed by administering BRDU and assessment of incorporation by histology.
BALB/c mice where exposed to random stress 4 times a day by spinning by the tail for 15 seconds. Controls where not stressed. Stressed mice where treated with Prozac or QuadraMune™ daily. Assessment of endogenous neurogenesis was performed by administering BRDU and assessment of incorporation by histology.

[5] = cited from earlier work
[6] = test system: primary peritoneal macrophages; conditions: cited from earlier work
[7] = test system: BALB/c mice with LPS-induced ARDS; conditions: cited from earlier work
[8] = test system: LPS-challenged macrophages; conditions: pre-incubated 6 h with SFN 0 to 50 μM, then LPS 24 h; cited from earlier work
[9] = test system: lipopolysaccharide-induced inflammatory reactions; conditions: cited from earlier work
[10] = test system: mice challenged with endotoxin (LPS 0111:B4) or live Escherichia coli; conditions: cited from earlier work; for concentrations of IL-la: controls 1187.0±278.64
cancer patients = test: Pterostilbene (nanostilbene) in cancer patients, NK cell activity and interferon gamma; assay type: in vivo, human; conditions: administered in the form of nanostilbene
Source text: Additionally, pterostilbene has shown to inhibit inflammatory cytokines associated with ARDS.

apoE(−/−) mice = conditions: PT injection; cited from earlier work
[11] = test system: human umbilical vein VECs (HUVECs); conditions: cited from earlier work
[12] = sulforaphane 50 mg/kg, LPS 5 mg/kg

Compound: O=C(O[C@@H]1Cc2c(O)cc(O)cc2O[C@@H]1c1cc(O)c(O)c(O)c1)c1cc(O)c(O)c(O)c1 [EGCG, Epigallocatechin Gallate]
- TNF-α-induced nuclear factor-κB (NF-κB) activity (macrophage foam cells): inhibition
- TNF-α-induced downregulation of ABCA1 and decrease in cholesterol efflux to apoA 1 (macrophage foam cells; pretreatment with EGCG): attenuated
- disease activity index (DAI) and spleen index (SI) ([1]; 50 and 100 mg/kg/day EGCG groups vs MD group): decreased
- HIF-1α and STATS protein expression in the colon ([1]; mouse, in vivo): decreasing
- plasma levels of IL-10 and TGF-β1 ([1]; mouse, in vivo): increasing
- release of IL-6 and IL-17 ([1]; mouse, in vivo): reduce
- iNOS activity in soluble extracts ([2]; EGCG 5 and 10 microM for 6-24 hr, vs macrophages without EGCG): significantly lower
- NO production ([2]; cells cotreated with EGCG and LPS): Inhibition
- activation of nuclear factor-kappaB ([2]; electrophoretic mobility shift assay): blocked
- myocardial damage and myeloperoxidase activity [3]: reduced
- plasma IL-6 and creatine phosphokinase levels [3]: decreased

Compound: CNCCC(Oc1ccc(C(F)(F)F)cc1)c1ccccc1 (stereo not drawn) [Prozac, Fluoxetine]
- endogenous neurogenesis (BRDU incorporation by histology) [4]: Augmented neurogenesis

Compound: Oc1ccc(C=Cc2cc(O)cc(O)c2)cc1 [resveratrol, reference compound]
- bioavailability ([5]; animal studies): 20%

Compound: C[S+]([O-])CCCCN=C=S (stereo not drawn) [sulforaphane, 1-isothiocyanato-4-(methylsulfinyl)-butane]
- HO-1 expression ([6]; LPS-stimulated Nrf2 (+/+) primary peritoneal macrophages): significantly augmented
- anti-inflammatory effect ([6]; Nrf2 (−/−) primary peritoneal macrophages): attenuated
- LPS-stimulated mRNA expression, protein expression and production of TNF-alpha, IL-1beta, COX-2 and iNOS ([6]; pretreatment, Nrf2 (+/+) primary peritoneal macrophages): potently inhibited
- serum levels of interleukin-6 (IL-6) and tumor necrosis factor-α (TNF-α) ([7]; ELISA, sulforaphane 50 mg/kg): significantly decreased
- Nrf2/antioxidant response element (ARE) pathway ([7]; pre-treatment): activated
- lactate dehydrogenase (LDH) activity [7, 12]: significantly decreased
- wet-to-dry ratio of the lungs [7, 12]: significantly decreased
- nuclear factor-κB protein expression ([7]; sulforaphane 50 mg/kg): significantly decreased
- prostaglandin E2 (PGE2) production, COX-2 and MMP-9 protein expression, iNOS activity ([7]; sulforaphane 50 mg/kg): significantly inhibited
- expression of NO and cytokines [8]: able to prevent

Compound: CC1=CC(=O)C(C(C)C)=CC1=O [thymoquinone]
- concentration of nitric oxide [9]: reduced significantly
- concentrations of IL-la ([10]; 0.75 mg/kg thymoquinone dose): 310.8 ± 70.93 pg/mL
- IL-10 levels ([10]; 0.75 mg/kg thymoquinone, controls 5505.2±333.96): 2885.0 ± 553.98 pg/mL
- concentrations of IL-la ([10]; 1 mg/kg group): 428.3 ± 71.32 pg/mL
- levels of TNF-α and IL-2 ([10]; P values=0.1817 and 0.0851): relatively lower levels
- renal and hepatic biomarker profiles ([10]; mouse, in vivo): improved
- reduced mortality ([10]; thymoquinone before endotoxin or E. coli sepsis in mice): 80-90%

Compound: trans-3,5-dimethoxy-4-hydroxystilbene [pterostilbene]
- NK cell activity (cancer patients): increased
- interferon gamma production (cancer patients): increased
- number of TUNEL-positive cells in the endothelium of atherosclerotic plaque (apoE(−/−) mice): strongly decreased
- bioavailability ([5]; rat, in vivo): 80%
- oxLDL-induced cell shrinkage, chromatin condensation, nuclear fragmentation and cell apoptosis ([11]; HUVECs, oxLDL 200 μg/ml): protected against such injuries
- expression of lectin-like oxLDL receptor-1 (LOX-1) ([11]; in vitro and in vivo): inhibited
